Assay results taken from patent US7820078B2, “Layer configuration with improved stability to sunlight exposure” (Agfa Graphics, N.V., priority 2007, dated 2010).

Legend:
[1] = cited from earlier work

For `Cc1nc2ccccc2[nH]1` [2-methylbenzimidazole], the pKa [1] is listed as 6.96.
In the case of `Sc1nnnn1-c1ccccc1` [1-phenyl-5-mercaptotetrazole], the pKa [1] is listed as 2.30.
For `c1cn[nH]c1` [pyrazole], the pKa [1] is given as 2.53.
`Oc1ccc2ccccc2c1O` showed a melting point of 101 to 103 °C.
In the case of `CC(C)N` [isopropylamine], the pKa [1] is listed as 10.63.
For `c1ccc2cnccc2c1` [isoquinoline], the pKa [1] is listed as 5.2.
